Data published in ChEMBL document CHEMBL5532661, “Discovery of a Novel Glucagon-like Peptide-1 (GLP-1) Analogue from Bullfrog and Investigation of Its Potential for Designing GLP-1-Based Multiagonists” (J Med Chem, 2024).
Numbered stars: 1 amine (or outer) side, 2 acyl side, 3 side chain; on linkers, the order of the positions; unused ones are H or OH. Square brackets hold non-standard residues; d marks the D form. Side chains are listed from the residue outwards. Peptide text beside a SMILES is read from it. * marks the point of attachment. C18 diacid = O=C(O)CCCCCCCCCCCCCCCCC(=O)*; γGlu = O=C(O)[C@H](CCC(=O)[*:2])N[*:1]; AEEA = NCCOCCOCC(=O)O; Aib = CC(C)(N)C(=O)O

Tests used:
Format in all cases: functional, cell-based
[1] = biological target: T1, Glucagon-like peptide 1 receptor (Homo sapiens, UniProt P43220); experiment: Agonist activity at human GLP-1 receptor expressed in HEK293 cells assessed as cAMP level by measuring relative percent (GLP-1 EC50/compound EC50) measured after 60 mins by HTRF based assay relative to GLP-1
Glucagon receptor [2] = biological target: T2, Glucagon receptor (Homo sapiens, UniProt P47871); experiment: Agonist activity at human GCGR expressed in HEK293 cells assessed as cAMP level by measuring relative percent (glucagon EC50/compound EC50) measured after 60 mins by HTRF based assay relative to glucagon
[3] = biological target: T1, Glucagon-like peptide 1 receptor; experiment: Agonist activity at human GLP-1 receptor expressed in HEK293 cells assessed as cAMP level measured after 60 mins by HTRF based assay
[4] = biological target: T3, Gastric inhibitory polypeptide receptor (Homo sapiens, UniProt P48546); experiment: Agonist activity at human GIPR receptor expressed in HEK293 cells assessed as cAMP level measured after 60 mins by HTRF based assay
T3 sequence (P48546 whole entry): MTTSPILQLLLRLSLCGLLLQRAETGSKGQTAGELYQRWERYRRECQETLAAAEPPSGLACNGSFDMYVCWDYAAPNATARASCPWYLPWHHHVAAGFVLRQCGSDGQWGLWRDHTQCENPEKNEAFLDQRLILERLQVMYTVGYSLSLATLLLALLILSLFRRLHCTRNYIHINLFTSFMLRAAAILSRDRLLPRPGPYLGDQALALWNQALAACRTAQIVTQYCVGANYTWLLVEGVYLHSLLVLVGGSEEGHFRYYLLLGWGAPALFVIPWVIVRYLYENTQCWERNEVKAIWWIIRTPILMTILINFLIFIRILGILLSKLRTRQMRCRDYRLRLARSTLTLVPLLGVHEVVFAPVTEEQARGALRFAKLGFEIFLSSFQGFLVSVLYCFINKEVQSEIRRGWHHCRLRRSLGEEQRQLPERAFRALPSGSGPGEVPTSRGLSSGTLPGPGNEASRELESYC

Glucagon receptor [5] = biological target: T2, Glucagon receptor; experiment: Agonist activity at human GCGR expressed in HEK293 cells assessed as cAMP level measured after 60 mins by HTRF based assay
[6] = biological target: T4, Gastric inhibitory polypeptide receptor (Homo sapiens) (UniProt P48546); experiment: Agonist activity at human GIPR receptor expressed in HEK293 cells assessed as cAMP level by measuring relative percent (GIP EC50/compound EC50) measured after 60 mins by HTRF based assay relative to GIP
T4 sequence (whole entry): T3 sequence (P48546 whole entry)

T2 sequence (P47871 whole entry): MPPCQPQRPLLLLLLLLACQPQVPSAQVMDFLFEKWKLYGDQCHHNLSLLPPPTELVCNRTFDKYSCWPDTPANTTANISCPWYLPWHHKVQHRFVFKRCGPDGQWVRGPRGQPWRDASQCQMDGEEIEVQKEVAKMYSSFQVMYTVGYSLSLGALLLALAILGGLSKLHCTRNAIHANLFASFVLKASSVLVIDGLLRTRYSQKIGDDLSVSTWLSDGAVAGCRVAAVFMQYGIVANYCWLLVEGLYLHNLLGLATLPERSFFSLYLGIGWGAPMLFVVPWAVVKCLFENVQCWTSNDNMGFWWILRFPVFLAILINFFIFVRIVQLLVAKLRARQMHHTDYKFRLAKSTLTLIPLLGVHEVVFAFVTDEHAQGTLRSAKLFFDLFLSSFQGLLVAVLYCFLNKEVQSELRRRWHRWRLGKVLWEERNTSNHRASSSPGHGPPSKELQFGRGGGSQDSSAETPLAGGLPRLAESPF
T1 sequence (P43220 whole entry): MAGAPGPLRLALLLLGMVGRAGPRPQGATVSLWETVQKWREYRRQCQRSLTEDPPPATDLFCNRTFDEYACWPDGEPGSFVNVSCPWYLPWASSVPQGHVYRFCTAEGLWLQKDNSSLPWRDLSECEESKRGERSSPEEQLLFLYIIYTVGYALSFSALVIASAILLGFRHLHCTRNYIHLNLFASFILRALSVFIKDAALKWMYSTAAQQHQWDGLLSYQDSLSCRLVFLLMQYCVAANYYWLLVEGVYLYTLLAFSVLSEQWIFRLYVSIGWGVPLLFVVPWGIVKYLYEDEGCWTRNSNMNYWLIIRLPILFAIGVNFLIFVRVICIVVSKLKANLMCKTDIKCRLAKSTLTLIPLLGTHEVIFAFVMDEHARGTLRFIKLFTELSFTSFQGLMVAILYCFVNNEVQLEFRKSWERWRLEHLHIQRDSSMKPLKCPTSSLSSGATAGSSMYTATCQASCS

| Molecule | Activity ([1]; filed as agonist) [%] | Activity (Glucagon receptor [2]) [%] | EC50 [3] [nM] | EC50 [4] [nM] | EC50 (Glucagon receptor [5]) [nM] | Activity [6] [%] | Activity [1] [%] |
| --- | --- | --- | --- | --- | --- | --- | --- |
| CC[C@H](C)[C@H](NC(=O)[C@H](CCCCNC(=O)COCCOCCNC(=O)COCCOCCNC(=O)CC[C@H](NC(=O)CCCCCCCCCCCCCCCCC(=O)O)C(=O)O)NC(=O)[C@H](CCC(=O)O)NC(=O)[C@H](CC(C)C)NC(=O)[C@H](C)NC(=O)[C@H](CCCNC(=N)N)NC(=O)[C@H](CO)NC(=O)[C@H](CC(C)C)NC(=O)[C@H](CC(=O)O)NC(=O)[C@H](CO)NC(=O)[C@@H](NC(=O)[C@H](Cc1ccccc1)NC(=O)[C@@H](NC(=O)CNC(=O)[C@H](CCC(N)=O)NC(=O)C(C)(C)NC(=O)[C@@H](N)Cc1c[nH]cn1)[C@@H](C)O)[C@@H](C)O)C(=O)N[C@@H](C)C(=O)N[C@@H](C)C(=O)N[C@@H](CCCNC(=N)N)C(=O)N[C@@H](CC(C)C)C(=O)N[C@@H](Cc1ccccc1)C(=O)N[C@H](C(=O)N[C@@H](CCC(=O)O)C(=O)N[C@@H](Cc1c[nH]c2ccccc12)C(=O)N[C@@H](CC(C)C)C(=O)N[C@H](C(=O)N[C@@H](CCC(=O)O)C(=O)NCC(=O)NCC(=O)N1CCC[C@H]1C(=O)N[C@@H](CO)C(=O)N[C@@H](CO)C(=O)NCC(=O)N[C@@H](C)C(=O)N1CCC[C@H]1C(=O)N1CCC[C@H]1C(=O)N1CCC[C@H]1C(=O)N[C@@H](CO)C(N)=O)[C@@H](C)CC)[C@@H](C)CC (H-H[Aib]QGTFTSDLSRALEK([AEEA-AEEA-γGlu-C18 diacid])IAARLFIEWLIEGGPSSGAPPPS-NH2) | 241 | 5 | 0.022 | 0.97 | 1.8 | 3 | – |
| CSCC[C@H](NC(=O)[C@H](CC(=O)O)NC(=O)[C@H](CO)NC(=O)[C@@H](NC(=O)[C@H](Cc1ccccc1)NC(=O)[C@@H](NC(=O)CNC(=O)[C@H](CCC(N)=O)NC(=O)[C@H](CO)NC(=O)[C@@H](N)Cc1c[nH]cn1)[C@@H](C)O)[C@@H](C)O)C(=O)N[C@@H](CO)C(=O)N[C@@H](CCCCN)C(=O)N[C@@H](Cc1ccc(O)cc1)C(=O)N[C@@H](CCCCNC(=O)COCCOCCNC(=O)COCCOCCNC(=O)CC[C@H](NC(=O)CCCCCCCCCCCCCCCCC(=O)O)C(=O)O)C(=O)N[C@@H](CC(=O)O)C(=O)N[C@@H](CO)C(=O)N[C@@H](CCCNC(=N)N)C(=O)N[C@@H](CCCNC(=N)N)C(=O)N[C@@H](C)C(=O)N[C@@H](CCC(N)=O)C(=O)N[C@@H](CC(=O)O)C(=O)N[C@@H](Cc1ccccc1)C(=O)N[C@H](C(=O)N[C@@H](CC(=O)O)C(=O)N[C@@H](Cc1c[nH]c2ccccc12)C(=O)N[C@@H](CC(C)C)C(=O)N[C@@H](CCCCN)C(=O)N[C@@H](CC(N)=O)C(=O)NCC(=O)NCC(=O)N1CCC[C@H]1C(=O)N[C@@H](CO)C(=O)N[C@@H](CO)C(=O)NCC(=O)N[C@@H](C)C(=O)N1CCC[C@H]1C(=O)N1CCC[C@H]1C(=O)N1CCC[C@H]1C(=O)N[C@@H](CO)C(N)=O)C(C)C (H-HSQGTFTSDMSKYK([AEEA-AEEA-γGlu-C18 diacid])DSRRAQDFVDWLKNGGPSSGAPPPS-NH2) | 108 | 8 | 0.049 | – | 1.2 | – | – |
| H-HSQGTFTSDMSSYLDSRRAQDFVDWLIKGRPSSGAPPPS-NH2 | – | 5 | 0.21 | – | 1.8 | – | 25 |
